From US20200315960A1, “DRUG DELIVERY DEVICE AND METHOD” (BIORINGS LLC, priority 2019, published 2020)

Assays:
human sperm = assay: Effect of various concentrations on the motility of human sperm; type: cell-based; details: for spermiostatic effects: lower concentrations of albumin and dextran; for concentration shown to be spermiostatic: motility of human sperm
Excerpt: The effects of various concentrations of magnesium chloride, calcium chloride, ferrous sulfate, copper sulfate, and ferrous gluconate on the motility of human sperm were studied.

[1] = Effect on viscosity of cervical mucus; details: concentrations from 0.310% to a range of 1-2.5%

dextran
sperm immobilized (human sperm; 1.25% solution of dextran): ~95%
spermiostatic effects (human sperm): not significant

ferrous gluconate [dihydrate form of ferrous gluconate]
onset of spermiostatic effect (human sperm; in the presence of the dihydrate form): immediate

[Cl-].[Cl-].[Mg+2] [magnesium chloride]
concentration shown to be spermiostatic (human sperm): 35 mM

O=C1O[C@H]([C@@H](O)CO)C(O)=C1O [L-ascorbic acid]
overall viscosity of the mucus [1]: increases in direct relationship with increasing concentrations

ferrous gluconate
immobilization of sperm (human sperm; 25 mM solutions): 97.4%
immobilization of sperm (human sperm; 37.5 mM solutions): completely immobilized all the sperm
concentration shown to be spermiostatic (human sperm): 12.5 mM

albumin
sperm completely immobilized (human sperm; 20% albumin): ~97%
sperm completely immobilized (human sperm; 40% albumin): ~97%
sperm motility (human sperm; albumin concentration 10%): decreased sperm motility almost close to that of 12.5 mM concentration of ferrous gluconate
spermiostatic effects (human sperm): not significant

[Ca+2].[Cl-].[Cl-] [Calcium chloride]
concentration shown to be spermiostatic (human sperm): 25 mM

Ferrous sulfate
concentration that completely arrested the motility of human sperm (human sperm; complete arrest of motility): 10 mM

O=S(=O)([O-])[O-].[Cu+2] [Copper sulfate]
immobilization of sperm (human sperm; 25 mM solutions): 93.3%
immobilization of sperm (human sperm; 37.5 mM solutions): completely immobilized all the sperm
concentration shown to be spermiostatic (human sperm): 6.25 mM
